# Laboratory results as given in US7781565B2 (priority 2006, dated 2010).
# Entries after “also recorded” stand apart in the source; their conditions may differ.
# Test system: NCI-60 cell lines
# Assay type: cell-based, human
Substance,Cell Line the peptide is associated with (peptide recovered from phage library selection on this NCI-60 cell line),Cell Line with which the peptide (and its tripeptide motif) is associated,Cell Line (NCI-60 cell line the peptide and its motif are associated with),Cell Line (NCI-60 cell line the peptide is associated with)
VHKRAVL,UO31 Renal,–,–,–
GLVRGTA,–,Molt-4-Leukemia,–,–
PPGASLY,–,–,M14 Melanoma,–
RSGSSVY,–,H23-Lung,–,–
RGSVGPS,–,–,–,SW620-Colon
LGLRGWT,ACHN Renal,–,–,–
AGLGLLD,–,–,SK-OV-3-3 Ovarian,–
AATRAGS,–,–,UACC 257 Melanoma,–
AGSVDLV,–,–,SK-MEL-5 Melanoma,–
RMGFGLR,–,–,–,LOX-IMVI Melanoma
DGEGAGL,–,–,–,SNB-75 CNS
RTGSSDL,–,Hop-92-Lung,–,–
PIGAVMN,–,–,DU-145 Prostate,–
GLGLRLG,–,–,OVCAR-8 Ovarian,–
TLGSVRV,–,–,SK-MEL-5 Melanoma,–
PRSSLVV,–,H460-Lung,–,–
RDGVRVG,–,–,–,LOX-IMVI Melanoma
PLRSVWS,–,–,–,SF-268 CNS
LVSVWSR,–,–,–,HCT-15 Colon
GRLSFGV,ACHN Renal,–,–,–
GAGLSTS,–,H322-Lung,–,–
AGSIALR,–,HL-60-Leukemia,–,–
LKLLSVP,–,–,–,HT-29 Colon

Substance,Cell Line the peptide is associated with (peptide recovered from phage library selection on this NCI-60 cell line),Cell Line with which the peptide (and its tripeptide motif) is associated,Cell Line (NCI-60 cell line the peptide and its motif are associated with),Cell Line (NCI-60 cell line the peptide is associated with)
LLSRRVG,–,–,–,SNB-75 CNS
ARAMGLR,–,Hop-62-Lung,–,–
GGLSVDL,–,EKVX-Lung,–,–
ARAGSTF,–,–,A498 Renal,–
AGGGGYH,MDA-MB-435-Breast,–,–,–
RAAVSAI,–,Molt-4-Leukemia,–,–
VLTRAST,–,–,–,HCC-2998-Colon
DGGRRTD,–,–,–,HCT-15 Colon
GLVARVR,–,–,SK-MEL-28 Melanoma,–
LGGLGLY,–,–,DU-145 Prostate,–
SVEGRGV,–,A549-Lung,–,–
MGPSARW,BT-549 Breast,–,–,–
AVSKRLP,–,H522-Lung,–,–
VARGQMQ,–,H226-Lung,–,–
FSKMRAS,–,–,DU-145 Prostate,–
AAIVGVS,MDA-MB-231 Breast,–,–,–
SGGLAVA,–,–,UACC 257 Melanoma,–
RGVFYGK,–,H322-Lung,–,–
VARSSFR,–,–,IGROV1 Ovarian,–
GAGGGVG,MDA-MB-435-Breast,–,–,–
LLSFLGR,–,Molt-4-Leukemia,–,–
TTLLSRQ,–,–,OVCAR-5 Ovarian,–
RRGSSRN,–,SR Leukemia,–,–

Substance,Cell Line the peptide is associated with (peptide recovered from phage library selection on this NCI-60 cell line),Cell Line with which the peptide (and its tripeptide motif) is associated,Cell Line (NCI-60 cell line the peptide and its motif are associated with),Cell Line (NCI-60 cell line the peptide is associated with)
APLRSGR,–,EKVX-Lung,–,–
GRAVWMV,–,–,–,KM-12C Colon
ASLPVLD,–,–,M14 Melanoma,–
VDVGGAG,–,–,786-0 Renal,–
SGGGGLG,–,–,–,SF-268 CNS
WRASAFT,–,SR Leukemia,–,–
VRVSGLT,–,–,SK-MEL-5 Melanoma,–
VAGRVGI,–,–,MALME-3M Melanoma,MALME-3M Melanoma
KAASTED,SN12C Renal,–,–,–
GHSERLS,T-47D Breast,–,–,–
SLYGLRW,–,–,M14 Melanoma,–
DEGGSRW,–,–,IGROV1 Ovarian,–
VGLGHWP,–,Hop-62-Lung,–,–
ASGLVVT,–,–,–,SNB-75 CNS
HSGVSHG,–,RPMI-8226-Leukemia,–,–
FDARGGL,–,CCRF-CEM Leukemia,–,–
SRLSYYA,–,–,–,KM-12C Colon
ARGNVRF,MDA-MB-231 Breast,–,–,–
WAHGVLS,–,–,M14 Melanoma,–
FGGSGRG,–,–,–,LOX-IMVI Melanoma
GRSSAGP,MDA-MB-231 Breast,–,–,–
GVRPFPR,–,Hop-62-Lung,–,–
HQAGGVT,–,–,UACC62 Melanoma,–

Substance,Cell Line the peptide is associated with (peptide recovered from phage library selection on this NCI-60 cell line),Cell Line with which the peptide (and its tripeptide motif) is associated,Cell Line (NCI-60 cell line the peptide and its motif are associated with),Cell Line (NCI-60 cell line the peptide is associated with)
LSLAGAG,–,–,–,HT-29 Colon
GAYGGLL,–,–,–,SF-268 CNS
AVWGGLG,–,H226-Lung,–,–
FVARLRV,TK-10 Renal,–,–,–
VRGSVRA,–,H23-Lung,–,–
GDRGVRG,A498 Renal,–,A498 Renal,–
RVVGAVL,ACHN Renal,–,–,–
AGGRWNL,–,–,–,HT-29 Colon
RKPGGGR,–,–,–,HT-29 Colon
LLRSVGY,–,–,DU-145 Prostate,–
AAGAGWR,–,–,OVCAR-4 Ovarian,–
DTPSAVS,–,–,–,SF-268 CNS
FPAVSTE,T-47D Breast,–,–,–
RLRAASY,–,RPMI-8226-Leukemia,–,–
CGARGAA,–,H322-Lung,–,–
CMAGSQD,SN12C Renal,–,–,–
LLSAARF,MDA-MB-231 Breast,–,–,–
WRLSREG,–,–,SK-MEL-2 Melanoma,–
AVFRASR,CAIK-1 Renal,–,–,–
MGSAVSL,–,Hop-92-Lung,–,–
LSVLRVL,–,–,IGROV1 Ovarian,–
ARSSHRA,–,–,–,HCT-116 Colon
RFTRSSG,–,A549-Lung,–,–

Substance,Cell Line the peptide is associated with (peptide recovered from phage library selection on this NCI-60 cell line),Cell Line with which the peptide (and its tripeptide motif) is associated,Cell Line (NCI-60 cell line the peptide and its motif are associated with),Cell Line (NCI-60 cell line the peptide is associated with)
VRVSLNS,MDA-MB-231 Breast,–,–,–
FRASSEV,–,Hop-62-Lung,–,–
PQGPSSV,ACHN Renal,–,–,–
FLRVGEL,–,Hop-62-Lung,–,–
RQKCGGL,–,–,–,HT-29 Colon
WRLGAVG,–,–,–,SW620-Colon
VSAASSV,RXF393 Renal,–,–,–
AGPSAWL,–,Hop-92-Lung,–,–
RGLRSVN,–,H226-Lung,–,–
SRFRVSI,–,CCRF-CEM Leukemia,–,–
GLGNRPT,–,RPMI-8226-Leukemia,–,–
FGRLLSP,–,–,UACC62 Melanoma,–
GGGSDGV,–,CCRF-CEM Leukemia,–,–
ELHPRGV,–,K-562-Leukemia,–,–
GRSSGME,–,–,–,HT-29 Colon
PTGAGLL,–,–,IGROV1 Ovarian,–
VRLTGVR,–,–,SK-OV-3-3 Ovarian,–
FMTYGSG,–,–,OVCAR-4 Ovarian,–
AARGVMV,–,–,SK-MEL-2 Melanoma,–
TLGGLRT,–,–,–,SF-295 CNS
INRGSRE,–,–,SK-MEL-28 Melanoma,–
TQYYGSS,–,–,–,SNB-19 CNS; also recorded: SF-539 CNS
SRVSNPS,–,–,SK-MEL-2 Melanoma,–

Substance,Cell Line the peptide is associated with (peptide recovered from phage library selection on this NCI-60 cell line),Cell Line with which the peptide (and its tripeptide motif) is associated,Cell Line (NCI-60 cell line the peptide and its motif are associated with),Cell Line (NCI-60 cell line the peptide is associated with)
SNHTASL,–,–,–,SF-295 CNS
RERGAVQ,–,CCRF-CEM Leukemia,–,–
GVNGSVS,–,–,SK-MEL-28 Melanoma,–
LGGRTIS,–,–,DU-145 Prostate,–
YLRSAGM,–,–,PC3 Prostate,–
DNCERGV,–,–,UACC62 Melanoma,–
RAAGGSR,–,RPMI-8226-Leukemia,–,–
YMYHGRV,–,–,OVCAR-4 Ovarian,–
RPARGAF,ACHN Renal,–,–,–
AGWRLSQ,CAIK-1 Renal,–,–,–
QVLLRSF,–,Hop-62-Lung,–,–
LTGGLVF,–,–,DU-145 Prostate,–
SDENGRL,–,HL-60-Leukemia,–,–
FVGRVGE,A498 Renal,–,–,–
VYYRLSA,–,SR Leukemia,–,–
FLRGVEL,–,–,SK-OV-3-3 Ovarian,–
AVEGRGS,–,–,–,HCT-116 Colon
AAGREFR,–,Hop-62-Lung,–,–
